Assay results reported in the METLIN SMRT retention time set (Domingo-Almenara et al. 2019).

Test: gradient 5% acetonitrile 3 min, to 50% in 2 min, to 85% in 15 min, held 3 min, 100 µL/min
Settings: column: Zorbax Extend-C18 2.1 x 50 mm; eluents: water / acetonitrile, 0.1% formic acid
Summary of the method: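 Pure standards were analyzed in mixtures of ~100 molecules using HPLC coupled to a quadrupole time-of-flight mass spectrometer, in both positive and negative ionization mode. Separation used a Zorbax Extend-C18 column (2.1 × 50 mm, 1.8 μm) at 100 μL/min, with water and acetonitrile each containing 0.1% formic acid. Dead and dwell volumes were 40 μL and 900 μL, and data were collected over 3 months. Retention time was read from computationally picked adduct peaks, each inspected manually.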

Row | Structure (SMILES) | RP-LC retention time [s]
1 | COc1ccc(-c2nnc(Cc3nc(-c4ccccc4Cl)no3)o2)cc1 | 973
2 | O=C(NCc1cccc2ccccc12)NCC1CN(c2ccccc2)C(=O)O1 (configuration not stated) | 781
3 | CCS(=O)(=O)Nc1ccc(C2(C(=O)NCc3cccc(C)c3)CCC2)cc1 | 869
4 | CCOc1ccc(N2CC(c3nnc(NC(=O)c4ccc(Cl)cc4)o3)CC2=O)cc1 (configuration not stated) | 803
5 | O=C(NC1CC(=O)N(c2ccc3c(c2)OCCO3)C1)c1ccc(-c2ccccc2)cc1 (configuration not stated) | 866
6 | O=C(NCCn1ncccc1=O)c1ccc(S(=O)(=O)N2CCOCC2)cc1 | 572
7 | Cc1ccccc1Cn1cc(-c2ccncc2)cc1C(=O)NCC1CC1 | 704
8 | COC(=O)c1ccc(Cn2nc(C3CCN(S(C)(=O)=O)CC3)n(C)c2=O)cc1 | 642
9 | Cc1ccc(CNC(=O)C2CCN(c3cnn(C)c(=O)c3)C2)o1 (configuration not stated) | 641
10 | COCc1cc2nn(CC(=O)Nc3ccc(C)cc3)c(=O)n2c(-c2ccccc2)n1 | 838
11 | Cc1ccc(NC(=O)N2CCc3cn(C)c4cccc(c34)C2)c(C)c1 | 980
12 | CCC(C)NC(=O)c1cn(CCOC)cc2c(=O)n(-c3ccccc3)nc1-2 (configuration not stated) | 819
13 | CCOC(=O)N1CCN(c2ccc(C(F)(F)F)cc2[N+](=O)[O-])CC1 | 967
14 | CCn1ccc(C(=O)N2c3ccccc3CC2c2nc(C(C)C)no2)n1 (configuration not stated) | 970
15 | O=C(NCC1CCCCC1)C1CCN(C(=O)c2cc3ccsc3n2Cc2ccc(Cl)cc2)CC1 | 1170
16 | Cc1cc(C)cc(C(=O)N2CCC(c3noc(N)c3C(C)C)CC2)c1 | 829
17 | CCc1nncn1C1CCN(C(=O)c2cc(F)ccc2Cl)CC1 | 628
18 | CC(C)C(=O)N1CCc2ccc([N+](=O)[O-])cc2C1 | 728
19 | Cc1c(Cl)cccc1S(=O)(=O)N1CCc2nc(-c3ccccc3)ncc2C1 | 1210
20 | CN(C)C(=O)c1n[nH]c2c1CN(C(=O)c1ccc(C(F)(F)F)cc1)CC2 | 674
21 | Cn1cnc(S(=O)(=O)N2CC(Oc3ccc(-c4nc(-c5ccccc5)no4)cc3)C2)c1 | 983
22 | CCOc1ccc(CC(=O)N2CCCC2c2nc(-c3ccccc3Cl)no2)cc1OCC (configuration not stated) | 1050
23 | Cc1noc(C2CN(CC(=O)N3CCN(c4ccc(Cl)cc4)CC3)C2)n1 | 590

Row | Structure (SMILES) | RP-LC retention time [s]
24 | Cc1cc(-c2nnc(C3CCC3)o2)c(C)n1CC(=O)Nc1cccc(F)c1 | 900
25 | COC(=O)N(C)c1c(N)nc(-c2nn(Cc3ccccc3F)c3ncccc23)nc1N | 729
26 | CN1C(=O)COc2ccc(-c3csc(NC(=O)COc4ccc(Cl)cc4)n3)cc21 | 1010
27 | Cn1nccc1C(=O)N1CCCCCCNC(=O)[C@@H]2CCCC[C@@H]21 | 705
28 | Cc1ccc(-c2noc(Cn3c(=O)n(-c4ccccc4F)c(=O)c4sccc43)n2)cc1C | 1090
29 | COc1ccc(CCCOC(Cn2ccnc2)c2ccc(OC)cc2)cc1 (configuration not stated) | 785
30 | O=C(CCc1conc1-c1ccccc1)N1CCC(N2CCCCC2)CC1 | 616
31 | Cc1ccn2cc(-c3ccc(NC(=O)CCC4CCCC4)cc3)nc2n1 | 722
32 | CCOc1ccccc1NC(=O)Cn1nc(C(=O)N2CCCC2)c2ccccc21 | 917
33 | COc1ccc(-c2nn(-c3ccccc3)cc2C#N)cc1[N+](=O)[O-] | 1010
34 | Cc1cc2nn(CC(=O)N3CCC(C)CC3)c(=O)n2c(Nc2ccc(F)cc2)n1 | 990
35 | CC1=C(c2ccc(F)cc2)S(=O)(=O)N=C1N1CCCN(C(=O)c2ccncc2)CC1 | 649
36 | CN1CCN(C(=O)c2ccc(CN3CCN(Cc4ccc(F)cc4)C(=O)C3=O)cc2)CC1 | 592
37 | CCN(CCCNC(=O)c1nnc(-c2ccc(S(=O)(=O)N3CCCC3)cc2)o1)Cc1ccccc1 | 661
38 | CCOCCCNC(=O)C(C)Oc1ccc(=O)n(-c2ccc(C)c(C)c2)n1 (configuration not stated) | 871
39 | Cc1cc(=O)n(CC(=O)Nc2cccc(Cl)c2)c(N2CCCCC2)n1 | 701
40 | O=C(Nc1cccc(C(F)(F)F)c1)Nc1cccn2ncnc12 | 896
41 | C=CCn1c(=O)c(=O)n(Cc2ccc(C(=O)N3CCN(c4ccccn4)CC3)cc2)c2ccccc21 | 626
42 | C=Cc1ccc(CN2C(=O)N(c3cccc(F)c3)c3ncccc3S2(=O)=O)cc1 | 834
43 | CC(=O)N1CCC(C(=O)N2CCC3(CC2)NCc2ccccc2-n2ccnc23)CC1 | 564
44 | Cc1occc1C(=O)N1CCC2(CC1)CC(C)(O)CCO2 (configuration not stated) | 645
45 | CC(C)n1c(N2CCN(C(=O)COc3ccccc3)CC2)cc(=O)n(C(C)C)c1=O | 855
46 | COc1ccc(OCc2nc3ccc(C)cc3[nH]2)cc1 | 578

Row | Structure (SMILES) | RP-LC retention time [s]
47 | CCCn1c(-c2cccc(C(=O)NCCC3=CCCCC3)c2)nc2cccnc21 | 935
48 | CCCS(=O)(=O)N1CCC(Cc2nc(-c3ccncc3)n[nH]2)C1 (configuration not stated) | 576
49 | COc1ccc(-c2noc(C3CCCN3C(=O)c3ccco3)n2)cc1 (configuration not stated) | 809
50 | CCc1cc(=O)n(CC(=O)Nc2ccc(F)c(F)c2)c(N2CCOCC2)n1 | 756
51 | O=C(NCc1ccc(F)cc1F)c1ccc2c(c1)nc1n2CCN(Cc2ccccc2)C1=O | 795
52 | CC1CCCN(C(=O)c2csc(-c3ccc(N4CCCC4)nc3)n2)C1 (configuration not stated) | 660
53 | CC(C)NC(=O)c1sc(-n2cccc2)nc1C(C)C | 1060
54 | Cc1ccc(CNC(=O)CCC2CCCN(S(=O)(=O)c3ccccc3C)C2)cc1 (configuration not stated) | 1010
55 | CN(C)S(=O)(=O)c1ccc(C(=O)N2Cc3nn(C(C)(C)C)c(-n4cccc4)c3C2)cc1 | 888
56 | O=C(CCSc1ccccc1)N1CCCC(c2nnc(-c3cccs3)o2)C1 (configuration not stated) | 837
57 | CC(=O)Oc1ccc(C(=O)N2CCCc3ccccc32)cc1 | 904
58 | O=C(NC1CCS(=O)(=O)C1)c1ccc(C(=O)c2ccccc2)cc1 (configuration not stated) | 675
59 | CCOC(=O)c1cccc(NC(=O)Nc2cccc(-c3ccc(N4CCOCC4)nn3)c2)c1 | 742
60 | CC(C)NC(=O)CSc1nnc2c3cc(-c4ccc(F)cc4)nn3ccn12 | 735
61 | O=C([C@@H]1C[C@H](F)CN1C(=O)Nc1cccc(Br)c1)N1CCCCC1 | 753
62 | COC(=O)c1nnn(-c2ccc(OC)cc2)c1C(=O)OC | 815
63 | Cn1c(CCNC(=O)c2cccc(F)c2)nc2cccnc21 | 611
64 | COc1ccc(C)cc1NC(=O)NCC(c1cccnc1)c1cn(C)c2ccccc12 (configuration not stated) | 734
65 | CCC(C)NC(=O)c1ccc2c(c1)CC(=O)N2C (configuration not stated) | 644
66 | CN1CCN(CCSC2Cc3cc(Cl)ccc3Sc3ccccc32)CC1 (configuration not stated) | 761
67 | Cc1ncnc2c1CCC(=O)N2Cc1cccnc1 | 539
